# Data published in PMC10518257 (Nature Cancer, 2023).
# Several values for one entry are separate records, joined by “and”; a condition that tells them apart may be missing. Identical values can stand only once.
# Assays:
# [1] = test system: Ba/F3 KIF5B–RET^WT allograft tumors; assay: Subcutaneous allograft efficacy study; assay type: in vivo, BALB/c nude mice; settings: Ba/F3-KIF5B::RET, Ext. Data Fig. 9a
# [2] = Animal weight of tumor-bearing mice; settings: for Animal Weight (g), Mean: Ba/F3-KIF5B::RET tumor-bearing mice (Ext. Data Fig 8h); for Animal Weight: individual animals
# [3] = Transcellular transport study, apparent permeability; settings: pig, LLC-PK1
structure (smiles),measurement,setting,value
COc1ccc(CN2C3CC2CN(c2ccc(-c4cc(OCC(C)(C)O)cn5ncc(C#N)c45)cn2)C3)cn1 [Selpercatinib],Tumor Volume Mean,"[1]; 10 mg/kg BID, Day 11",318.64 mm3
same,Tumor Volume Mean,"[1]; 10 mg/kg BID, Day 15",406.01 mm3
same,Tumor Volume Mean,"[1]; 30 mg/kg BID, Day 1",155.70 mm3
same,Tumor Volume Mean,"[1]; 30 mg/kg BID, Day 4",126.28 mm3
same,Tumor Volume Mean,"[1]; 30 mg/kg BID, Day 8",138.87 mm3
same,Tumor Volume Mean,"[1]; 30 mg/kg BID, Day 11",107.82 mm3
same,Tumor Volume Mean,"[1]; 30 mg/kg BID, Day 15",112.41 mm3
same,Tumor Volume Mean,"[1]; 100 mg/kg BID, Day 1",157.17 mm3
same,Tumor Volume Mean,"[1]; 100 mg/kg BID, Day 4",107.92 mm3
same,Tumor Volume Mean,"[1]; 100 mg/kg BID, Day 8",75.50 mm3
same,"Animal Weight, Mean","[2]; Ba/F3-KIF5B::RET G810R (Fig 8f), Selpercatinib 10 mg/kg BID, day 1",27.18 g
same,"Animal Weight, Mean","[2]; Ba/F3-KIF5B::RET G810R (Fig 8f), Selpercatinib 10 mg/kg BID, day 4",26.90 g
same,"Animal Weight, Mean","[2]; Ba/F3-KIF5B::RET G810R (Fig 8f), Selpercatinib 10 mg/kg BID, day 8",26.00 g
same,"Animal Weight, Mean","[2]; Ba/F3-KIF5B::RET G810R (Fig 8f), Selpercatinib 10 mg/kg BID, day 11",26.60 g
same,"Animal Weight, Mean","[2]; Ba/F3-KIF5B::RET G810R (Fig 8f), Selpercatinib 10 mg/kg BID, day 15",26.48 g
same,"Animal Weight, Mean","[2]; Ba/F3-KIF5B::RET G810R (Fig 8g), Selpercatinib 30 mg/kg BID, day 1",25.8 g
same,"Animal Weight, Mean","[2]; Ba/F3-KIF5B::RET G810R (Fig 8g), Selpercatinib 30 mg/kg BID, day 4",26.9 g
same,"Animal Weight, Mean","[2]; Ba/F3-KIF5B::RET G810R (Fig 8g), Selpercatinib 30 mg/kg BID, day 8",27.0 g
same,"Animal Weight, Mean","[2]; Ba/F3-KIF5B::RET G810R (Fig 8g), Selpercatinib 30 mg/kg BID, day 11",26.8 g
same,"Animal Weight, Mean","[2]; Ba/F3-KIF5B::RET G810R (Fig 8g), Selpercatinib 30 mg/kg BID, day 15",26.8 g
same,"Animal Weight (g), Mean","[2]; 3 mg/kg BID, day 1",28.0 g
same,"Animal Weight (g), Mean","[2]; 3 mg/kg BID, day 4",28.1 g
same,"Animal Weight (g), Mean","[2]; 3 mg/kg BID, day 8",28.6 g
same,"Animal Weight (g), Mean","[2]; 3 mg/kg BID, day 11",28.6 g
same,"Animal Weight (g), Mean","[2]; 3 mg/kg BID, day 15",28.4 g
same,"Animal Weight (g), Mean","[2]; 10 mg/kg BID, day 1",27.7 g
same,"Animal Weight (g), Mean","[2]; 10 mg/kg BID, day 4",27.7 g
same,"Animal Weight (g), Mean","[2]; 10 mg/kg BID, day 8",28.2 g
same,"Animal Weight (g), Mean","[2]; 10 mg/kg BID, day 11",28.7 g
same,"Animal Weight (g), Mean","[2]; 10 mg/kg BID, day 15",28.6 g
same,"Animal Weight (g), Mean","[2]; 30 mg/kg BID, day 1",28.1 g
same,"Animal Weight (g), Mean","[2]; 30 mg/kg BID, day 4",27.9 g
same,"Animal Weight (g), Mean","[2]; 30 mg/kg BID, day 8",29.0 g
same,"Animal Weight (g), Mean","[2]; 30 mg/kg BID, day 11",29.6 g
same,"Animal Weight (g), Mean","[2]; 30 mg/kg BID, day 15",29.2 g
same,"Animal Weight (g), Mean","[2]; 100 mg/kg BID, day 1",26.8 g
same,"Animal Weight (g), Mean","[2]; 100 mg/kg BID, day 4",26.1 g
same,"Animal Weight (g), Mean","[2]; 100 mg/kg BID, day 8",23.3 g
same,Animal Weight,"[2]; LUAD-0077AS1 PDX, Selpercatinib 10 mg/kg BID, treatment day 0",24 g and 25 g and 21 g and 23 g (2×)
same,Animal Weight,"[2]; LUAD-0077AS1 PDX, Selpercatinib 10 mg/kg BID, treatment day 4",24 g (3×) and 21 g and 23 g
same,Animal Weight,"[2]; LUAD-0077AS1 PDX, Selpercatinib 10 mg/kg BID, treatment day 7",23 g (3×) and 21 g and 24 g
same,Animal Weight,"[2]; LUAD-0077AS1 PDX, Selpercatinib 10 mg/kg BID, treatment day 11",24 g (2×) and 23 g (2×) and 21 g
same,Animal Weight,"[2]; LUAD-0077AS1 PDX, Selpercatinib 10 mg/kg BID, treatment day 14",23 g and 24 g (2×) and 21 g and 25 g
same,Animal Weight,"[2]; LUAD-0077AS1 PDX, Selpercatinib 10 mg/kg BID, treatment day 19",25 g and 23 g and 22 g and 26 g and 24 g
same,Animal Weight,"[2]; LUAD-0087AS2 PDX, Selpercatinib 30 mg/kg BID, treatment day 0",27 g (4×) and 28 g
same,Animal Weight,"[2]; LUAD-0087AS2 PDX, Selpercatinib 30 mg/kg BID, treatment day 3",26 g (3×) and 28 g and 27 g
same,Animal Weight,"[2]; LUAD-0087AS2 PDX, Selpercatinib 30 mg/kg BID, treatment day 7",27 g (3×) and 26 g and 28 g
same,Animal Weight,"[2]; LUAD-0087AS2 PDX, Selpercatinib 30 mg/kg BID, treatment day 10",27 g (3×) and 26 g (2×)
same,Animal Weight,"[2]; LUAD-0087AS2 PDX, Selpercatinib 30 mg/kg BID, treatment day 14",26 g (3×) and 27 g (2×)
same,Animal Weight,"[2]; LUAD-0087AS2 PDX, Selpercatinib 30 mg/kg BID, treatment day 17",27 g (4×) and 26 g
same,Animal Weight,"[2]; LUAD-0087AS2 PDX, Selpercatinib 30 mg/kg BID, treatment day 21",28 g and 27 g (2×) and 26 g and 25 g
same,Animal Weight,"[2]; LUAD-0087AS2 PDX, Selpercatinib 30 mg/kg BID, treatment day 24",28 g (2×) and 27 g (2×) and 26 g
same,Animal Weight,"[2]; LUAD-0087AS2 PDX, Selpercatinib 30 mg/kg BID, treatment day 29",26 g (2×) and 27 g and 28 g (2×)
same,Animal Weight,"[2]; LUAD-0087AS2 PDX, Selpercatinib 30 mg/kg BID, treatment day 32",26 g (2×) and 28 g (3×)
same,Animal Weight,"[2]; LUAD-0087AS2 PDX, Selpercatinib 30 mg/kg BID, treatment day 35",26 g (2×) and 28 g and 27 g (2×)
same,Animal Weight,"[2]; LUAD-0087AS2 PDX, Selpercatinib 30 mg/kg BID, treatment day 38",23 g (2×) and 28 g and 29 g and 26 g
same,Animal Weight,"[2]; LUAD-0087AS2 PDX, Selpercatinib 30 mg/kg BID, treatment day 42",27 g (4×) and 26 g
same,Animal Weight,"[2]; LUAD-0087AS2 PDX, Selpercatinib 30 mg/kg BID, treatment day 45",28 g (3×) and 27 g (2×)
same,"Papp at 3 h, 1 μM",[3],17 ×10⁻⁶ cm/s
